Laboratory results: patent publication US20100136538A1, “MARKING REAGENTS BEARING DIAZO AND NITRO FUNCTIONS, METHODS FOR THE SYNTHESIS OF SUCH REAGENTS AND METHODS FOR DETECTING BIOLOGICAL MOLECULES” (Biomerieux, priority 2007, published 2010)

Key:
[1] = Accelerated stability in liquid medium (125 mM in 96/4 DMSO/methanol, ambient temperature), HPLC purity; type: physicochemical; conditions: 22° C., at 10 days
Description: For this purpose, an accelerated stability study is carried out under extreme conditions, in which the compounds are stored at 125 mM in a 96/4 DMSO/methanol mixture at ambient temperature (22° C.+/−1° C.). Note that these are extreme storage conditions.
The three compounds meta nitro DKB, para nitro DKB, and BBP, which are clearly shown in FIG. 10, are dissolved at 125 mM in a 96/4 DMSO/methanol mixture and are stored at ambient temperature (22° C. plus or minus 1° C.). At regular intervals subsequently, 2 μl of these solutions are injected in HPLC (basic method, Waters HPLC system) in order to measure the degradation of the principal product by integrating all of the peaks in the chromatogram (PDA Max Plot in the Empower 2 software).

[2] = type: physicochemical
Description: The three compounds meta nitro DKB, para nitro DKB, and BBP are dissolved at 250 mM in a Tris HCl 10 mM, pH 7.5, and 10% Trehalose solution. The solutions are lyophilized overnight in aliquots of 50 nmol. The dry products are then stored at 4° C. At regular intervals these aliquots are dissolved in methanol and 15 μl of these solutions are injected in HPLC (Waters) in order to measure the degradation of the principal product by integration of all of the peaks in the chromatogram (PDA Max Plot in the Empower software).

Substance: [Bio-EG3]2-PDAM [BBP]
- purity of the initial compound (HPLC) [1]: < 10%
- stability in dry form [2]: does not withstand lyophilization
- breakdown during lyophilization ([2]; Tris HCl 10 mM pH 7.5, 10% Trehalose, lyophilized overnight): > 60%
